Measured values taken from patent US20220288014A1, “ORAL FORMULATIONS OF CANNABIS EXTRACTS AND METHODS OF MAKING SAME” (Neptune Wellness Solutions Inc., priority 2019, published 2022).

Tests used:
[1] = Example 2: rat pharmacokinetics of CBD and THC from cannabis extract (1:1 THC:CBD), IV bolus and oral gavage in MCT, TG-O3 or krill oil (PL-O3); assay type: in vivo; conditions: intravenous administration of cannabis extract in lipid-free solution, at 5 minutes (data not shown)
Text: The study design and methods of analyses of the pre-clinical study were the same as disclosed in Example 1.
Values are expressed as mean±SEM.

[2] = Example 1: rat pharmacokinetics of CBD and THC from cannabis extract (1:1 THC:CBD), IV bolus and oral gavage in MCT, TG-O3 or MAG-O3 carrier oil; conditions: intravenous administration of cannabis extract in lipid-free solution, at 5 minutes (data not shown)

C=C(C)[C@@H]1CCC(C)=C[C@H]1c1c(O)cc(CCCCC)cc1O [CBD, cannabidiol]
peak plasma concentration [1]: 1193 ± 290 ng/mL | peak plasma concentration [2]: 1193 ± 290 ng/mL

CCCCCc1cc(O)c2c(c1)OC(C)(C)[C@@H]1CCC(C)=C[C@@H]21 [THC, Δ^9tetrahydrocannabinol]
peak plasma concentration [1]: 864 ± 194 ng/mL | peak plasma concentration [2]: 864 ± 194 ng/mL
